In brackets after ≈: the same amount, converted by molar mass. Where two headings read alike, the source gives them in different places.
Columns and labels:
[1] = test system: HL-60 cells; test: cells; conditions: for anti-proliferation effects: HL-60, concentrations up to 100 ng/ml
Protocol: A given number of cells were cultivated in 96-well plates with serial dilutions of the drugs up to 100 ng/ml. Tubulysin A is used as a positive control, whereas methanol is used as a negative control. After 5 days of incubation the metabolic activities of the cells were measured using MTT-assay as described under the methods section.
The effect of pre-tubulysin 816 and 827 was tested with regard to the growth of other cell lines, including the mouse connective tissues fibroblast L929, the human lung carcinoma cell line A549, the human colon adenocarcinoma cell line SW-480, and the human histiocytic lymphoma cell line U937, in addition to the human myeloid leukemia cell line HL-60.

[2] = test system: U-2 OS human osteosarcoma cells; test: cells; type: cell-based; conditions: average of two measurements
Protocol: (§1) Cytotoxicity testing of pretubulysin (AU827), N-desmethyl-pretubulysin (AU816) and Tubulysin A and D was performed as follows: Cells were seeded at 6×10^3 cells per well of 96-well plates in 180 μl complete medium and directly treated with varying concentrations of (pre-)tubulysins diluted in methanol. Each compound was tested in duplicate as well as the internal methanol control. After 5 d incubation, 20 μl of 5 mg/ml MTT (Thiazolyl blue tetrazolium bromide) in PBS was added per well and it was further incubated for 2 h at 37° C. The medium was then discarded and cells were washed with 100 μl PBS before adding 100 μl 2-propanol/10 N HCl (250:1) in order to dissolve formazan granules.
(§2) The absorbance at 570 nm was measured using a microplate reader (EL808, Bio-Tek Instruments Inc.), and cell viability was expressed as percentage relative to the respective methanol control. IC50 values were obtained by plotting relative growth inhibition in % against the compound concentration on a logarithmic scale. After sigmoidal curve fitting IC50 values can be determined. The IC50[per ml] are shown in the following table (values represent the average of two measurements):
Similarly cytotoxicity testing of Pretubulysin-related compounds in U-2 OS human osteosarcoma cells was performed and was further compared with AU 339 and AU 954, compounds mentioned in WO2008/106080 and WO2004/046170. The IC50 values are shown in the following table (values represent the average of two measurements): […]

[3] = test system: L929; test: Anti-proliferation MTT assay (Example 2, Table 1); type: cell-based; conditions: L929 mouse connective tissue fibroblast
[4] = test system: U937; test: Anti-proliferation MTT assay (Example 2, Table 1); type: cell-based; conditions: U937 human histiocytic lymphoma
[5] = test system: COS-7; test: cells; type: cell-based, African green monkey; conditions: COS-7, average of two measurements
Protocol: as §1
as §2, with “measurements): […]” for “measurements):”

[6] = test system: L929; test: cells; type: cell-based, mouse; conditions: L929, average of two measurements
Protocol: as §1
as §2, with “measurements): […]” for “measurements):”

[7] = test system: A431; test: cells; type: cell-based, human; conditions: A431, average of two measurements
Protocol: as §1
as §2, with “measurements): […]” for “measurements):”

[8] = test system: A549; test: cells; type: cell-based, human; conditions: A549, average of two measurements
Protocol: as §1
as §2, with “measurements): […]” for “measurements):”

[9] = test system: HEK293T; test: cells; type: cell-based, human; conditions: average of two measurements
Protocol: as §1
as §2, with “measurements): […]” for “measurements):”

[10] = test system: HL-60; test: cells; type: cell-based, human; conditions: HL-60, average of two measurements
Protocol: as §1
as §2, with “measurements): […]” for “measurements):”

[11] = test system: HepG2; test: cells; type: cell-based, human; conditions: HepG2, average of two measurements
Protocol: as §1
as §2, with “measurements): […]” for “measurements):”

[12] = test system: K562; test: cells; type: cell-based, human; conditions: K562, average of two measurements
Protocol: as §1
as §2, with “measurements): […]” for “measurements):”

[13] = test system: KB3.1; test: cells; type: cell-based, human; conditions: KB3.1, average of two measurements
Protocol: as §1
as §2, with “measurements): […]” for “measurements):”

[14] = test system: SH-SY5Y; test: cells; type: cell-based, human; conditions: average of two measurements
Protocol: as §1
as §2, with “measurements): […]” for “measurements):”

[15] = test system: SW480; test: cells; type: cell-based, human; conditions: SW480, average of two measurements
Protocol: as §1
as §2, with “measurements): […]” for “measurements):”

[16] = test system: U937; test: cells; type: cell-based, human; conditions: U937, average of two measurements
Protocol: as §1
as §2, with “measurements): […]” for “measurements):”

[17] = test system: PtK2 cells; type: cell-based; conditions: 24 hours incubation
Protocol: Cell staining: Ptk2 cells were seeded on round glass coverslips (13 mm in diameter) in 4-well plates. Cells were incubated with the drugs to the given times as indicated for each experiment. For staining the microtubules and the nuclei, cells were firstly fixed with cold (−20° C.) acetone/methanol (1:1) for 10 min. For labelling the microtubules, cells were incubated with a primary monoclonal antibody against α-tubulin (1:500 Sigam) for 45 min at 37° C., followed by a secondary anti-mouse IgG antibody conjugated with Alexa488 (1:2000; Molecular probes) under the same incubations conditions. The nuclei were stained with DAPI (1 μg/ml in PBS). The cells were washed with phosphate buffer saline (PBS) between incubations. Coverslips were mounted by using Prolong Antifade (Molecular Probes) and imaged through a fluorescence microscope (LSM-Zeiss) with appropriate filter set.
Tubulysin A and D are known to induce de-polymerization of the interphase microtubules of mammalian cells and additionally induce a multi-polar spindle pool in mitotic cells (Khalil, M. et al., Chembiochem. 7, 678-683 (2006); Sasse, F., Menche, D. Nat. Chem. Biol. 3, 87-89 (2007)). Here the effect of pre-tubulysin treatment on the morphologies of microtubules and microtubules related structures in PtK2 cells was tested. PtK2 cells were seeded onto glass cover clips in 4 well plates and cultivated for 24 or 48 hours under growth conditions. The cells were then treated with different concentrations of tubulysin A, tubulysin D, pre-tubulysin-816 or pre-tubulysin-827. The control cells were treated only with equivalent amount of methanol (solvent). The cells were thin incubated for further 24 hours before they were fixed as described under the methods section. Fixed cells were then washed with PBS and finally labeled with anti-α-tubulin primary antibodies followed by anti-mouse-alexa-488 secondary antibodies to visualize the microtubules. The nuclei were stained with DAPI.

[18] = test system: cancer cell lines; conditions: growth inhibition of cancer cell lines; cited from earlier work
[19] = Homo sapiens, U2OS, comparison with prior art compounds, read-out: IC50

Q: What does the source list for `CC[C@H](C)[C@H](NC(=O)CN(C)C)C(=O)N(C)[C@H](CCc1nc(C(=O)N[C@H](CCC(=O)O)Cc2ccccc2)cs1)C(C)C` [pre-tubulysin-825]?
A: anti-proliferation effects ([1]; 5 days, MTT): no anti-proliferation effects; IC50 ([1]; Homo sapiens, HL-60): 600 ng/mL (≈ 974 nM)

Q: Which IC50 [2, 19] does the source give for `CCOC(=O)/C(C)=C/[C@H](Cc1ccccc1)NC(=O)c1csc(CC[C@H](C(C)C)N(C)C(=O)[C@@H](NC(=O)[C@H]2CCCCN2C)[C@@H](C)CC)n1` [AU939] here?
A: 339 ng/mL (≈ 487 nM)

Q: Which IC50 ([1]; HL-60, serial dilutions up to 100 ng/ml, 5 days, MTT) does the source give for `CC[C@H](C)[C@H](NC(=O)[C@H]1CCCCN1C)C(=O)N(COC(=O)CC(C)C)[C@H](C[C@@H](OC(C)=O)c1nc(C(=O)N[C@@H](Cc2ccc(O)cc2)C[C@H](C)C(=O)O)cs1)C(C)C` [Tubulysin A, reference compound] here?
A: 0.0019 ng/mL (≈ 0.00225 nM)

Q: What about the IC50 value ([1]; HL-60 human acute myeloid leukemia (Table 1)) of the same molecule?
A: 0.002 ng/mL (≈ 0.00237 nM)

Q: And the IC50 value [3]?
A: 0.15 ng/mL (≈ 0.178 nM)

Q: And the IC50 value [4]?
A: 0.002 ng/mL (≈ 0.00237 nM)

Q: And the IC50 [5]?
A: 0.0806 ng/mL (≈ 0.0955 nM)

Q: What about the IC50 [6] of the same molecule?
A: 0.21 ng/mL (≈ 0.249 nM)

Q: And the IC50 [7]?
A: 0.1002 ng/mL (≈ 0.119 nM)

Q: And the IC50 [8]?
A: 0.0856 ng/mL (≈ 0.101 nM)

Q: And the IC50 [9]?
A: 0.0523 ng/mL (≈ 0.062 nM)

Q: And the IC50 [10]?
A: 0.0479 ng/mL (≈ 0.0567 nM)

Q: And the IC50 [11]?
A: 0.12 ng/mL (≈ 0.142 nM)

Q: And the IC50 [12]?
A: 0.40 ng/mL (≈ 0.474 nM)

Q: What about the IC50 [13] of the same molecule?
A: 0.16 ng/mL (≈ 0.19 nM)

Q: What about the IC50 [14] of the same molecule?
A: 0.21 ng/mL (≈ 0.249 nM)

Q: And the IC50 [15]?
A: 0.0187 ng/mL (≈ 0.0222 nM)

Q: And the IC50 [16]?
A: 0.0461 ng/mL (≈ 0.0546 nM)

Q: And the IC50 [2]?
A: 0.19 ng/mL (≈ 0.225 nM)

Q: What about the IC50 ([2]; comparison with prior art compounds) of the same molecule?
A: 0.19 ng/mL (≈ 0.225 nM)

Q: And the “concentration for complete de-polymerization (disappearance) of interphase microtubules” value [17]?
A: 500 pg/mL

Q: Which IC50 ([5]; Chlorocebus sabaeus, read-out: IC50) does the source give for `CC[C@H](C)[C@H](NC(=O)[C@H]1CCCCN1C)C(=O)N(COC(=O)CC(C)C)[C@H](C[C@@H](OC(C)=O)c1nc(C(=O)N[C@@H](Cc2ccccc2)C[C@H](C)C(=O)O)cs1)C(C)C` [Tubulysin D, reference compound] here?
A: 0.0337 ng/mL (≈ 0.0407 nM)

Q: What about the IC50 ([6]; Mus musculus, read-out: IC50) of the same molecule?
A: 0.017 ng/mL (≈ 0.0205 nM)

Q: And the IC50 ([7]; Homo sapiens, A-431, read-out: IC50)?
A: 0.0119 ng/mL (≈ 0.0144 nM)

Q: What about the IC50 ([8]; Homo sapiens, read-out: IC50) of the same molecule?
A: 0.0056 ng/mL (≈ 0.00676 nM)

Q: What about the IC50 ([9]; Homo sapiens, HEK-293T, read-out: IC50) of the same molecule?
A: 0.0104 ng/mL (≈ 0.0126 nM)

Q: And the IC50 ([10]; Homo sapiens, read-out: IC50)?
A: 0.0028 ng/mL (≈ 0.00338 nM)

Q: What about the IC50 ([11]; Homo sapiens, read-out: IC50) of the same molecule?
A: 0.0066 ng/mL (≈ 0.00797 nM)

Q: And the IC50 ([12]; Homo sapiens, read-out: IC50)?
A: 0.0222 ng/mL (≈ 0.0268 nM)

Q: And the IC50 ([13]; Homo sapiens, KB 3-1, read-out: IC50)?
A: 0.0182 ng/mL (≈ 0.022 nM)

Q: And the IC50 ([14]; Homo sapiens, read-out: IC50)?
A: 0.0113 ng/mL (≈ 0.0136 nM)

Q: And the IC50 ([15]; Homo sapiens, read-out: IC50)?
A: 0.0037 ng/mL (≈ 0.00447 nM)

Q: And the IC50 ([16]; Homo sapiens, U-937, read-out: IC50)?
A: 0.0025 ng/mL (≈ 0.00302 nM)

Q: And the IC50 ([2]; Homo sapiens, U2OS, read-out: IC50)?
A: 0.0342 ng/mL (≈ 0.0413 nM)

Q: What about the IC50 [2, 19] of the same molecule?
A: 0.034 ng/mL (≈ 0.0411 nM)

Q: What about the “concentration for complete de-polymerization (disappearance) of interphase microtubules” value [17] of the same molecule?
A: 50 pg/mL

Q: What about the “potency relative to tubulysin A” value [18] of the same molecule?
A: approximately 10 folds

Q: For `CC[C@H](C)[C@H](NC(=O)[C@H]1CCCCN1C)C(=O)N(C)[C@H](CCc1nc(C(=O)O)cs1)C(C)C` [pre-tubulysin-814], which anti-proliferation effects ([1]; 5 days, MTT) is on record?
A: no anti-proliferation effects

Q: What about the cytotoxic activity ([1]; at concentration up to 11 μg/ml, listed as Pre-tub-814) of the same molecule?
A: did not show any cytotoxic activity

Q: With `CC[C@H](C)[C@H](NC(=O)[C@H]1CCCCN1C)C(=O)N(C)[C@H](CCc1nc(C(=O)N[C@@H](Cc2ccccc2)C(=O)O)cs1)C(C)C` [pre-tubulysin-815] as the molecule, how does the anti-proliferation effects ([1]; 5 days, MTT) read?
A: no anti-proliferation effects

Q: What about the IC50 ([1]; Homo sapiens, HL-60) of the same molecule?
A: 700 ng/mL (≈ 1110 nM)

Q: With `CC[C@H](C)[C@H](NC(=O)[C@H]1CCCCN1C)C(=O)N(C)[C@H](CCc1nc(C(=O)N[C@H](/C=C(\C)C(=O)O)Cc2ccccc2)cs1)C(C)C` [AU954] as the molecule, how does the IC50 [2, 19] read?
A: 82 ng/mL (≈ 123 nM)
